± gives the uncertainty stated by the source.
Assay: xn = mol fraction of the nth substance listed

SMILES: CCC(C)=O + C1CCCCC1
- viscosity (293.15 K, 101.33 kPa, x2 = 0.0479): 0.401 ± 0.008 mPa·s
- viscosity (293.15 K, 101.33 kPa, x2 = 0.0956): 0.404 ± 0.008 mPa·s
- viscosity (293.15 K, 101.33 kPa, x2 = 0.1983): 0.433 ± 0.008 mPa·s
- viscosity (293.15 K, 101.33 kPa, x2 = 0.3046): 0.466 ± 0.009 mPa·s
- viscosity (293.15 K, 101.33 kPa, x2 = 0.4002): 0.488 ± 0.009 mPa·s
- viscosity (293.15 K, 101.33 kPa, x2 = 0.5028): 0.53 ± 0.009 mPa·s
- viscosity (293.15 K, 101.33 kPa, x2 = 0.6056): 0.581 ± 0.01 mPa·s
- viscosity (293.15 K, 101.33 kPa, x2 = 0.703): 0.641 ± 0.011 mPa·s
- viscosity (293.15 K, 101.33 kPa, x2 = 0.8048): 0.72 ± 0.012 mPa·s
- viscosity (293.15 K, 101.33 kPa, x2 = 0.9029): 0.824 ± 0.014 mPa·s
- viscosity (293.15 K, 101.33 kPa, x2 = 0.9515): 0.888 ± 0.014 mPa·s
- viscosity (298 K, 101.3 kPa, x2 = 0.126): 0.426 ± 0.006 mPa·s
- viscosity (298 K, 101.3 kPa, x2 = 0.2633): 0.448 ± 0.006 mPa·s
- viscosity (298 K, 101.3 kPa, x2 = 0.4524): 0.501 ± 0.006 mPa·s
- viscosity (298 K, 101.3 kPa, x2 = 0.6037): 0.554 ± 0.006 mPa·s
- viscosity (298 K, 101.3 kPa, x2 = 0.8267): 0.685 ± 0.007 mPa·s
- viscosity (298.15 K, 101 kPa, x2 = 0.1): 0.41 ± 0.004 mPa·s
- viscosity (298.15 K, 101 kPa, x2 = 0.2): 0.425 ± 0.005 mPa·s
- viscosity (298.15 K, 101 kPa, x2 = 0.3): 0.444 ± 0.005 mPa·s
- viscosity (298.15 K, 101 kPa, x2 = 0.4): 0.472 ± 0.005 mPa·s
- viscosity (298.15 K, 101 kPa, x2 = 0.5): 0.508 ± 0.005 mPa·s
- viscosity (298.15 K, 101 kPa, x2 = 0.6): 0.548 ± 0.006 mPa·s
- viscosity (298.15 K, 101 kPa, x2 = 0.7): 0.595 ± 0.006 mPa·s
- viscosity (298.15 K, 101 kPa, x2 = 0.8): 0.665 ± 0.007 mPa·s
- viscosity (298.15 K, 101 kPa, x2 = 0.9): 0.752 ± 0.007 mPa·s
- viscosity (298.15 K, 101.33 kPa, x2 = 0.0479): 0.381 ± 0.007 mPa·s
- viscosity (298.15 K, 101.33 kPa, x2 = 0.0956): 0.39 ± 0.008 mPa·s
- viscosity (298.15 K, 101.33 kPa, x2 = 0.1983): 0.41 ± 0.008 mPa·s
- viscosity (298.15 K, 101.33 kPa, x2 = 0.3046): 0.441 ± 0.008 mPa·s
- viscosity (298.15 K, 101.33 kPa, x2 = 0.4002): 0.459 ± 0.008 mPa·s
- viscosity (298.15 K, 101.33 kPa, x2 = 0.5028): 0.498 ± 0.009 mPa·s
- viscosity (298.15 K, 101.33 kPa, x2 = 0.6056): 0.543 ± 0.01 mPa·s
- viscosity (298.15 K, 101.33 kPa, x2 = 0.703): 0.597 ± 0.01 mPa·s
- viscosity (298.15 K, 101.33 kPa, x2 = 0.8048): 0.668 ± 0.011 mPa·s
- viscosity (298.15 K, 101.33 kPa, x2 = 0.9029): 0.76 ± 0.013 mPa·s
- viscosity (298.15 K, 101.33 kPa, x2 = 0.9515): 0.816 ± 0.013 mPa·s
- viscosity (303.15 K, 101.33 kPa, x2 = 0.0479): 0.363 ± 0.007 mPa·s
- viscosity (303.15 K, 101.33 kPa, x2 = 0.0956): 0.37 ± 0.007 mPa·s
- viscosity (303.15 K, 101.33 kPa, x2 = 0.1983): 0.388 ± 0.007 mPa·s
- viscosity (303.15 K, 101.33 kPa, x2 = 0.3046): 0.419 ± 0.008 mPa·s
- viscosity (303.15 K, 101.33 kPa, x2 = 0.4002): 0.433 ± 0.008 mPa·s
- viscosity (303.15 K, 101.33 kPa, x2 = 0.5028): 0.468 ± 0.009 mPa·s
- viscosity (303.15 K, 101.33 kPa, x2 = 0.6056): 0.51 ± 0.009 mPa·s
- viscosity (303.15 K, 101.33 kPa, x2 = 0.703): 0.558 ± 0.01 mPa·s
- viscosity (303.15 K, 101.33 kPa, x2 = 0.8048): 0.622 ± 0.011 mPa·s
- viscosity (303.15 K, 101.33 kPa, x2 = 0.9029): 0.705 ± 0.012 mPa·s
- viscosity (303.15 K, 101.33 kPa, x2 = 0.9515): 0.754 ± 0.013 mPa·s
- viscosity (307.35 K, 101.33 kPa, x1 = 0.1093): 0.648 ± 0.01 mPa·s
- viscosity (307.35 K, 101.33 kPa, x1 = 0.361): 0.504 ± 0.0093 mPa·s
- viscosity (307.35 K, 101.33 kPa, x1 = 0.4975): 0.453 ± 0.0089 mPa·s
- viscosity (307.35 K, 101.33 kPa, x1 = 0.555): 0.429 ± 0.0086 mPa·s
- viscosity (307.35 K, 101.33 kPa, x1 = 0.6809): 0.413 ± 0.0085 mPa·s
- viscosity (307.35 K, 101.33 kPa, x1 = 0.8865): 0.366 ± 0.0081 mPa·s
- viscosity (318 K, 101.3 kPa, x2 = 0.1257): 0.349 ± 0.015 mPa·s
- viscosity (318 K, 101.3 kPa, x2 = 0.2611): 0.3682 ± 0.015 mPa·s
- viscosity (318 K, 101.3 kPa, x2 = 0.4518): 0.3996 ± 0.016 mPa·s
- viscosity (318 K, 101.3 kPa, x2 = 0.6033): 0.4343 ± 0.017 mPa·s
- viscosity (318 K, 101.3 kPa, x2 = 0.8254): 0.5157 ± 0.02 mPa·s

SMILES: COC(C)=O + C1CCCCC1
- viscosity (298.15 K, 101 kPa, x1 = 0.055): 0.839 ± 0.084 mPa·s
- viscosity (298.15 K, 101 kPa, x1 = 0.1546): 0.759 ± 0.076 mPa·s
- viscosity (298.15 K, 101 kPa, x1 = 0.2543): 0.689 ± 0.069 mPa·s
- viscosity (298.15 K, 101 kPa, x1 = 0.3548): 0.627 ± 0.063 mPa·s
- viscosity (298.15 K, 101 kPa, x1 = 0.4537): 0.572 ± 0.057 mPa·s
- viscosity (298.15 K, 101 kPa, x1 = 0.4985): 0.551 ± 0.055 mPa·s
- viscosity (298.15 K, 101 kPa, x1 = 0.5556): 0.525 ± 0.053 mPa·s
- viscosity (298.15 K, 101 kPa, x1 = 0.6544): 0.483 ± 0.049 mPa·s
- viscosity (298.15 K, 101 kPa, x1 = 0.7479): 0.448 ± 0.045 mPa·s
- viscosity (298.15 K, 101 kPa, x1 = 0.8548): 0.413 ± 0.041 mPa·s
- viscosity (308.15 K, 101 kPa, x1 = 0.055): 0.699 ± 0.07 mPa·s
- viscosity (308.15 K, 101 kPa, x1 = 0.1546): 0.614 ± 0.062 mPa·s
- viscosity (308.15 K, 101 kPa, x1 = 0.2543): 0.547 ± 0.055 mPa·s
- viscosity (308.15 K, 101 kPa, x1 = 0.3548): 0.493 ± 0.05 mPa·s
- viscosity (308.15 K, 101 kPa, x1 = 0.4537): 0.45 ± 0.045 mPa·s
- viscosity (308.15 K, 101 kPa, x1 = 0.4985): 0.435 ± 0.044 mPa·s
- viscosity (308.15 K, 101 kPa, x1 = 0.5556): 0.417 ± 0.042 mPa·s
- viscosity (308.15 K, 101 kPa, x1 = 0.6544): 0.392 ± 0.039 mPa·s
- viscosity (308.15 K, 101 kPa, x1 = 0.7479): 0.374 ± 0.038 mPa·s
- viscosity (308.15 K, 101 kPa, x1 = 0.8548): 0.36 ± 0.036 mPa·s
- viscosity (308.15 K, 101 kPa, x1 = 0.9548): 0.352 ± 0.035 mPa·s

SMILES: COC(C)=O + C1COCCO1
- viscosity (303.15 K, 101.3 kPa, x2 = 0.1026): 0.3813 ± 0.0033 mPa·s
- viscosity (303.15 K, 101.3 kPa, x2 = 0.3032): 0.4727 ± 0.0037 mPa·s
- viscosity (303.15 K, 101.3 kPa, x2 = 0.5004): 0.5895 ± 0.0042 mPa·s
- viscosity (303.15 K, 101.3 kPa, x2 = 0.7187): 0.7642 ± 0.005 mPa·s
- viscosity (303.15 K, 101.3 kPa, x2 = 0.8981): 0.9562 ± 0.006 mPa·s

SMILES: CC(=O)OC(C)C(C)C (stereo unspecified) + C=CC#N
- viscosity (298.15 K, 101.33 kPa, x2 = 0.096): 0.761 ± 0.02 mPa·s
- viscosity (298.15 K, 101.33 kPa, x2 = 0.1903): 0.726 ± 0.019 mPa·s
- viscosity (298.15 K, 101.33 kPa, x2 = 0.287): 0.684 ± 0.018 mPa·s
- viscosity (298.15 K, 101.33 kPa, x2 = 0.3796): 0.641 ± 0.017 mPa·s
- viscosity (298.15 K, 101.33 kPa, x2 = 0.4771): 0.595 ± 0.016 mPa·s
- viscosity (298.15 K, 101.33 kPa, x2 = 0.582): 0.54 ± 0.015 mPa·s
- viscosity (298.15 K, 101.33 kPa, x2 = 0.6783): 0.493 ± 0.014 mPa·s
- viscosity (298.15 K, 101.33 kPa, x2 = 0.7861): 0.44 ± 0.013 mPa·s
- viscosity (298.15 K, 101.33 kPa, x2 = 0.894): 0.388 ± 0.012 mPa·s
- viscosity (303.15 K, 101.33 kPa, x2 = 0.096): 0.71 ± 0.019 mPa·s
- viscosity (303.15 K, 101.33 kPa, x2 = 0.1903): 0.681 ± 0.018 mPa·s
- viscosity (303.15 K, 101.33 kPa, x2 = 0.287): 0.641 ± 0.017 mPa·s
- viscosity (303.15 K, 101.33 kPa, x2 = 0.3796): 0.601 ± 0.016 mPa·s
- viscosity (303.15 K, 101.33 kPa, x2 = 0.4771): 0.558 ± 0.015 mPa·s
- viscosity (303.15 K, 101.33 kPa, x2 = 0.582): 0.51 ± 0.014 mPa·s
- viscosity (303.15 K, 101.33 kPa, x2 = 0.6783): 0.465 ± 0.013 mPa·s
- viscosity (303.15 K, 101.33 kPa, x2 = 0.7861): 0.417 ± 0.012 mPa·s
- viscosity (303.15 K, 101.33 kPa, x2 = 0.894): 0.37 ± 0.011 mPa·s
- viscosity (308.15 K, 101.33 kPa, x2 = 0.096): 0.663 ± 0.018 mPa·s
- viscosity (308.15 K, 101.33 kPa, x2 = 0.1903): 0.639 ± 0.017 mPa·s
- viscosity (308.15 K, 101.33 kPa, x2 = 0.287): 0.604 ± 0.016 mPa·s
- viscosity (308.15 K, 101.33 kPa, x2 = 0.3796): 0.565 ± 0.016 mPa·s
- viscosity (308.15 K, 101.33 kPa, x2 = 0.4771): 0.526 ± 0.015 mPa·s
- viscosity (308.15 K, 101.33 kPa, x2 = 0.582): 0.48 ± 0.014 mPa·s
- viscosity (308.15 K, 101.33 kPa, x2 = 0.6783): 0.44 ± 0.013 mPa·s
- viscosity (308.15 K, 101.33 kPa, x2 = 0.7861): 0.396 ± 0.012 mPa·s
- viscosity (308.15 K, 101.33 kPa, x2 = 0.894): 0.353 ± 0.011 mPa·s

From the CheMixHub viscosity set
